Results from patent US20260327204A1, “DEGRADERS OF CYCLIN-DEPENDENT KINASE 12/13, COMPOSITIONS, AND USES THEREOF” (ZHEJIANG UNIVERSITY, priority 2023, published 2026).

How the values were obtained:
[1] = Liver microsome stability, human; format: in vitro ADME; conditions: liver microsomes
Protocol: (§1) • Compounds: Ketanserin, Formula 18, Formula 45 • Liver microsomes: Human liver microsomes (purchased from BioreclamationIVT); Dog, mouse, rat, and monkey liver microsomes (purchased from Xenotech)
(§2) Preparation of 500 μM compound solution: Add 5 μL of 10 mM compound solution and 95 μL of DMSO to an EP tube.
(§3) Preparation of solution containing 0.75 mg/mL liver microsomes and 1.5 μM compound: Add 1.5 μL of the 500 μM compound solution, 18.75 μL of the 20 mg/mL liver microsome solution, and 479.75 μL of PBS to an EP tube.
(§4) Preparation of 6 mM NADPH solution: Dissolve 5 mg of NADPH in 1 mL of PBS solution.
(§5) Add 30 μL of the solution containing 0.75 mg/mL liver microsomes and a concentration gradient of the compound to a 96-well plate. Add 15 μL of the 6 mM NADPH solution and 150 μL of a 1:1 acetonitrile:methanol solution containing an internal standard (IS). Vortex and centrifuge at 6,000 rpm for 10 min. 80 μL of the supernatant from each concentration sample is transferred to a 96-well plate containing 140 μL of pure water for LC/MS detection (injection volume of […]). […]
(§6) 80 μL of the supernatant from each well is transferred to a 96-well plate containing 140 μL of pure water for LC/MS detection (injection volume of […]). The compound concentration value is determined by comparing the corresponding mass spectrometry peak area with the standard curve. […]

[2] = Liver microsome stability, rat; format: in vitro ADME; conditions: liver microsomes
Protocol: as §1, §2, §3, §4, §5, §6

[3] = Liver microsome stability, dog; format: in vitro ADME; conditions: liver microsomes
Protocol: as §1, §2, §3, §4, §5, §6

[4] = Liver microsome stability, monkey; format: in vitro ADME; conditions: liver microsomes
Protocol: as §1, §2, §3, §4, §5, §6

CDK12 [5] = target: T1, CDK12 (Homo sapiens, UniProt Q9NYV4); assay: Western blot degradation of CDK12 (Example 2); format: cell-based; design: degradation of CDK12/13 protein in leukemia cells KASUMI-1, MV4-11, and Jurkat; endogenous in cells; conditions: DC50 classes; cell line not given; read-out: CDK12 degradation Activity
Outline: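 Leukemia lines KASUMI-1, MV4-11, Jurkat, plus MDA-MB-231 for a concentration series, treated at 0.01–3 μM for 3–48 h at 37 °C against DMSO control. Lysates in 4% SDS; CDK12/13 band intensity normalized to β-Actin or GAPDH to give degradation rate.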

CDK13 [6] = target: T2, CDK13 (Homo sapiens, UniProt Q14004); assay: Western blot degradation of CDK13 (Example 2); format: cell-based; design: degradation of CDK12/13 protein in leukemia cells KASUMI-1, MV4-11, and Jurkat; endogenous in cells; conditions: DC50 classes; cell line not given; read-out: CDK13 degradation Activity
CCNK = assay: Reversal of CCNK degradation by proteasome inhibitor MG132, Western blot; format: cell-based; conditions: MDA-MB-231, 24 h treatment, MG132 added 12 h before sample collection
Protocol: (§7) • Cell lines: HCT-116, Jurkat, or MDA-MB-231 • Culture medium: DMEM/RIPM-1640+10% Hyclone serum • Compound dissolution method: The compounds (small molecule conjugates as shown in Formulae 101-147, MG132) were dissolved in DMSO to prepare a 50 mM stock solution and then diluted to the corresponding concentrations.
(§8) (3) Compound treatment: The 50 mM compound stock solution was diluted with cell culture medium to a final concentration of 0.01 μM-3 μM. Cells were incubated in a 37 °C incubator with 5% CO2 for 3 h-48 h. The DMSO group served as the negative control.
In the figures, CDK12, CDK13, and CCNK are the target proteins under study, and β-Actin and GAPDH are the internal reference proteins. Internal reference proteins are used to indicate the total protein amount in each experimental group for quantitative analysis.

CDK12 [7] = target: T1, CDK12; assay: Reversal of CDK12 degradation by proteasome inhibitor MG132, Western blot; format: cell-based; design: endogenous in cells; conditions: MDA-MB-231, 24 h treatment, MG132 added 12 h before sample collection
Protocol: as §7, §8

CDK13 [8] = target: T2, CDK13; assay: Reversal of CDK13 degradation by proteasome inhibitor MG132, Western blot; format: cell-based; design: endogenous in cells; conditions: MDA-MB-231, 24 h treatment, MG132 added 12 h before sample collection
Protocol: as §7, §8

CDK12 [9] = target: T1, CDK12; assay: Western blot degradation of CDK12 (Example 3); format: cell-based; design: degradation of CDK12/13 protein in leukemia cells KASUMI-1, MV4-11, and Jurkat; endogenous in cells
CDK13 [10] = target: T2, CDK13; assay: Western blot degradation of CDK13 (Example 3); format: cell-based; design: degradation of CDK12/13 protein in leukemia cells KASUMI-1, MV4-11, and Jurkat; endogenous in cells
[11] = DC50 classes, cell line not given, read-out: CDK12 degradation Activity
[12] = DC50 classes, cell line not given, read-out: CDK13 degradation Activity

T1 sequence (Q9NYV4 whole entry): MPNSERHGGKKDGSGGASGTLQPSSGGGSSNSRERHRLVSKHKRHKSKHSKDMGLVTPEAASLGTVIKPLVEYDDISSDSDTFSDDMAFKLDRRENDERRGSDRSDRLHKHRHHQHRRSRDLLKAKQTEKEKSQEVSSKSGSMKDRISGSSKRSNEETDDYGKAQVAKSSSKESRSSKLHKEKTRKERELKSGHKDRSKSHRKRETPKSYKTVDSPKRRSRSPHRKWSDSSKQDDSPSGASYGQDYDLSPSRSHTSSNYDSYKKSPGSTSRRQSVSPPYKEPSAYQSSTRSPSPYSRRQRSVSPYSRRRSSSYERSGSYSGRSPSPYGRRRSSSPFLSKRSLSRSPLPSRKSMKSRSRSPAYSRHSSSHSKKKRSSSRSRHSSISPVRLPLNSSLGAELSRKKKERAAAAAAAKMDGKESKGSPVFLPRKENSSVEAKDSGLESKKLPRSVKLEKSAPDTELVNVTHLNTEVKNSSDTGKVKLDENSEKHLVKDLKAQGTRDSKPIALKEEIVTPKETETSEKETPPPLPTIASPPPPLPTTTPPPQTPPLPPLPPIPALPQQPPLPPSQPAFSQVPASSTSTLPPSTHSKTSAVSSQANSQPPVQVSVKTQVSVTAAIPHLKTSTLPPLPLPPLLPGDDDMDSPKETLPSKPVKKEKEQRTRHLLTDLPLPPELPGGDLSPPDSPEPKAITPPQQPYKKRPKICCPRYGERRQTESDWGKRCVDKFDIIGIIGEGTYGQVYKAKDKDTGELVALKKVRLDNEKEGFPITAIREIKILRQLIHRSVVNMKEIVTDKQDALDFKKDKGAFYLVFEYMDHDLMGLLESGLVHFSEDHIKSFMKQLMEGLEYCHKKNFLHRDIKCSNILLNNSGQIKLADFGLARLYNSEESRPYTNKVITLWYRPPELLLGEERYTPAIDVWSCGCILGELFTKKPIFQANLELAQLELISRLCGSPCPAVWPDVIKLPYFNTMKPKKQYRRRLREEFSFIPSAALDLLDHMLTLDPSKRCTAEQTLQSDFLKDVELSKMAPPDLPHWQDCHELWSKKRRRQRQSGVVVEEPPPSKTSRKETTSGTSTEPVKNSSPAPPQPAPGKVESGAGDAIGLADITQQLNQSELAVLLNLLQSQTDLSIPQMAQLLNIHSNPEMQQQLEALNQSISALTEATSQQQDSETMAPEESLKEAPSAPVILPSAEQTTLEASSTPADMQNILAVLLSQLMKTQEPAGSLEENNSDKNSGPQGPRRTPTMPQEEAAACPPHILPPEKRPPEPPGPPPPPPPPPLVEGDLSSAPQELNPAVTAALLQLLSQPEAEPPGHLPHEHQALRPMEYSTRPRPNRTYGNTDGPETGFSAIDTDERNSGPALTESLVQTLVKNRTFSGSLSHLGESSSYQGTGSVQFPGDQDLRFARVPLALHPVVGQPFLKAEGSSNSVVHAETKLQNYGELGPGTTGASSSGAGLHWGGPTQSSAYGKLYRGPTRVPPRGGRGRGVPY
T1 sequence (O75909 whole entry partner): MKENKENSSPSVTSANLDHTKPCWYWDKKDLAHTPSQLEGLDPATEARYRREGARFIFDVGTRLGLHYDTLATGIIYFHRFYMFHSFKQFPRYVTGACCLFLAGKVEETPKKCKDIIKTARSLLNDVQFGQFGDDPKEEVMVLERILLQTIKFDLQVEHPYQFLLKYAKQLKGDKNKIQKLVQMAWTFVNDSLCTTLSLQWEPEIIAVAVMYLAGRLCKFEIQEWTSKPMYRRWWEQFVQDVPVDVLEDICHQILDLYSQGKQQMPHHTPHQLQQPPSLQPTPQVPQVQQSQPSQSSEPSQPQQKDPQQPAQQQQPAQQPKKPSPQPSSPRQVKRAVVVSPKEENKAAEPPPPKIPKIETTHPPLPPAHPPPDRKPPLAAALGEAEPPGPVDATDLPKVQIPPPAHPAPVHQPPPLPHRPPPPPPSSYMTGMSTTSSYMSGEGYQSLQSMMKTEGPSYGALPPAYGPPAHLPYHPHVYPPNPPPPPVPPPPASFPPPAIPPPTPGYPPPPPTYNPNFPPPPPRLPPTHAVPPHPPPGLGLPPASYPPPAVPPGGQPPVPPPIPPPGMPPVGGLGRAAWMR
T2 sequence (Q14004 whole entry): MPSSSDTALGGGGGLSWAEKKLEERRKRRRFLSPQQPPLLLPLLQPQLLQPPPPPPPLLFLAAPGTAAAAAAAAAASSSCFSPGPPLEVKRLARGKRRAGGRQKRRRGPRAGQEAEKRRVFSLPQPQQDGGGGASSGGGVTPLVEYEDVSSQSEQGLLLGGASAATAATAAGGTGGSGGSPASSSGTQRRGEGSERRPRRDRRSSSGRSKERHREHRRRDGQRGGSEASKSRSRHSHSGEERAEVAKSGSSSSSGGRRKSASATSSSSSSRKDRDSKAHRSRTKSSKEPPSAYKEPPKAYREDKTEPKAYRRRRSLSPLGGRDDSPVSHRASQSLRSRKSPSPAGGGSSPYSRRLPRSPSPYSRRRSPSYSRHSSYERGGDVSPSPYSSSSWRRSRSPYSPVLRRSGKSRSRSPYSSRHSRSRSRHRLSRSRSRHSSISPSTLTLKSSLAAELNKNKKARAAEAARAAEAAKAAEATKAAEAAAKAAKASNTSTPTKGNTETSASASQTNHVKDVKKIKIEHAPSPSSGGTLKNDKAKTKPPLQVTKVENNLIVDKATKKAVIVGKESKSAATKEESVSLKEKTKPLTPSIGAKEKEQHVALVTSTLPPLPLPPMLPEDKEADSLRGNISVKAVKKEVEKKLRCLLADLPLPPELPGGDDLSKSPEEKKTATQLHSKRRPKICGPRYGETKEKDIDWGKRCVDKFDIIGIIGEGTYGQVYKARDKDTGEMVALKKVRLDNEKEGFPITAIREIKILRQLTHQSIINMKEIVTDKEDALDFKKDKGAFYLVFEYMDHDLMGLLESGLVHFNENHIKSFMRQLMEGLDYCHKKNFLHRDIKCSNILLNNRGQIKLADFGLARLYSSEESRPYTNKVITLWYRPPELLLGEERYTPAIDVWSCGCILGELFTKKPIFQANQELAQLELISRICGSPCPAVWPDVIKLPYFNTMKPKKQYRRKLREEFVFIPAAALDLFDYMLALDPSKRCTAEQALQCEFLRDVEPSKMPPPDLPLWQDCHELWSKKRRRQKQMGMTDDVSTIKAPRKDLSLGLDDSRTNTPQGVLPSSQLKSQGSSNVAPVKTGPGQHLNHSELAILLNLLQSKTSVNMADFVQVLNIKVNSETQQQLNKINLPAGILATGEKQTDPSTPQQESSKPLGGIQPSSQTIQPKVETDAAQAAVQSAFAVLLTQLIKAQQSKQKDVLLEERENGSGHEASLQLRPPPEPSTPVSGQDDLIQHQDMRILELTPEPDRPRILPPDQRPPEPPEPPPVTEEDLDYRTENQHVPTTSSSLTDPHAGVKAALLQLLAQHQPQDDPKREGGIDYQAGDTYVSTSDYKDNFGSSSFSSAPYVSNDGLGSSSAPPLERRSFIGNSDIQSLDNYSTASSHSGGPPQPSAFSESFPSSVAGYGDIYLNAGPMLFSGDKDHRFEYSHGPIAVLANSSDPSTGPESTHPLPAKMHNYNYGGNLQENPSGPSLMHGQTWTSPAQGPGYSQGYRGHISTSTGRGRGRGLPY
T2 sequence (O75909 whole entry partner): as the sequence (O75909 whole entry partner) above

Question: With `Cc1ncsc1-c1ccc([C@H](C)NC(=O)[C@@H]2C[C@@H](O)CN2C(=O)[C@@H](NC(=O)CN2CCN(c3ccc(-c4ccc(N(C(=O)NCc5ccccc5)[C@H]5CC[C@H](Nc6ccc(C#N)cn6)CC5)cc4)cn3)CC2)C(C)(C)C)cc1` [Formula 18] as the molecule, how does the half-life [1] read?
Answer: Its half-life is > 45 min.

Question: And the half-life [2]?
Answer: The half-life was > 45 min.

Question: What about the half-life [3] of the same molecule?
Answer: Its half-life is > 45 min.

Question: What about the half-life [4] of the same molecule?
Answer: The half-life was > 45 min.

Question: What about the DC50 (CDK12 [5]) of the same molecule?
Answer: Its DC50 is < 100 nM.

Question: What about the DC50 (CDK13 [6]) of the same molecule?
Answer: The DC50 was < 100 nM.

Question: What does the source list for `CC(=O)N(c1ccc(-c2ccc(N3CCN(c4ccc5c(c4)C(=O)N(C4CCC(=O)NC4=O)C5=O)CC3)nc2)cc1)[C@H]1CC[C@H](Nc2ncc3ccccc3n2)CC1` (stereo partly drawn) [Formula 103, N-(4-(6-(4-(2-(2,6-dioxopiperidin-3-yl)-1,3-dioxoisoindolin-5-yl)piperazin-1-yl)pyridin-3-yl)phenyl)-N-((1R,4R)-4-(quinazolin-2-ylamino)cyclohexyl)acetamide]?
Answer: reversal of CCNK degradation by MG132 (CCNK): can reverse the degradation of CDK12/13 and CCNK; reversal of CDK12 degradation by MG132 (CDK12 [7]): can reverse the degradation of CDK12/13 and CCNK; reversal of CDK13 degradation by MG132 (CDK13 [8]): can reverse the degradation of CDK12/13 and CCNK; DC50 (CDK12 [9]; [11]): < 100 nM; DC50 (CDK12 [9]; HCT116, colorectal cancer cells, read-out: CDK12 DC50): 22 nM; DC50 (CDK12 [9]; KASUMI-1, leukemia cells, read-out: CDK12 DC50): 15 nM; DC50 (CDK12 [9]; MDA-MB-231, breast cancer cells, read-out: CDK12 DC50): 16 nM; DC50 (CDK13 [10]; [12]): < 100 nM; DC50 (CDK13 [10]; HCT116, colorectal cancer cells, read-out: CDK13 DC50): 19 nM; DC50 (CDK13 [10]; KASUMI-1, leukemia cells, read-out: CDK13 DC50): 18 nM; DC50 (CDK13 [10]; MDA-MB-231, breast cancer cells, read-out: CDK13 DC50): 30 nM

Question: Which DC50 (CDK12 [9]; [11]) does the source give for `CC(=O)N(c1ccc(-c2cnc(N3CCN(CC(=O)N[C@H](C(=O)N4C[C@H](O)C[C@H]4C(=O)N[C@@H](C)c4ccc(-c5scnc5C)cc4)C(C)(C)C)CC3)nc2)cc1)[C@H]1CC[C@H](Nc2ncc3ccccc3n2)CC1` [Formula 148, (2S,4R)-1-((S)-3,3-dimethyl-2-(2-(4-(5-(4-(N-((1R,4R)-4-(quinazolin-2-ylamino)cyclohexyl)acetamido)phenyl)pyrimidin-2-yl)piperazin-1-yl)acetamido)butanoyl)-4-hydroxy-N—((S)-1-(4-(4-methylthiazol-5-yl)phenyl)ethyl)pyrrolidine-2-carboxamide] here?
Answer: Its DC50 is < 100 nM.

Question: What about the DC50 (CDK13 [10]; [12]) of the same molecule?
Answer: Its DC50 is < 100 nM.

Question: For `CC(=O)N(c1ccc(-c2ccc3c(c2)CCN(CC(=O)N[C@H](C(=O)N2C[C@H](O)C[C@H]2C(=O)N[C@@H](C)c2ccc(-c4scnc4C)cc2)C(C)(C)C)C3)cc1)[C@H]1CC[C@H](Nc2ncc3ccccc3n2)CC1` [Formula 149, (2S,4R)-1-((S)-3,3-dimethyl-2-(2-(6-(4-(N-((1R,4R)-4-(quinazolin-2-ylamino)cyclohexyl)acetamido)phenyl)-3,4-dihydroisoquinolin-2(1H)-yl)acetamido)butanoyl)-4-hydroxy-N—((S)-1-(4-(4-methylthiazol-5-yl)phenyl)ethyl)pyrrolidine-2-carboxamide], which DC50 (CDK12 [9]; [11]) is on record?
Answer: The DC50 was 500 to 1000 nM.

Question: What about the DC50 (CDK13 [10]; [12]) of the same molecule?
Answer: The DC50 was 1000 to 3000 nM.

Question: With `CC(=O)N(c1ccc(-c2ccc(N3CCN(Cc4cnn([C@H](C(=O)N5C[C@H](O)C[C@H]5C(=O)N[C@@H](C)c5ccc(-c6scnc6C)cc5)C(C)C)c4)CC3)nc2)cc1)C1CCC(Nc2ncc3ccccc3n2)CC1` (stereo partly drawn) [Formula 151, (2S,4R)-4-hydroxy-1-((S)-3-methyl-2-(4-((4-(5-(4-(N-((1R,4R)-4-(quinazolin-2-ylamino)cyclohexyl)acetamido)phenyl)pyridin-2-yl)piperazin-1-yl)methyl)-1H-pyrazol-1-yl)butanoyl)-N—((S)-1-(4-(4-methylthiazol-5-yl)phenyl)ethyl)pyrrolidine-2-carboxamide] as the molecule, how does the DC50 (CDK12 [9]; read-out: CDK12 degradation Activity, DC50 classes, cell line not given) read?
Answer: The DC50 was 500 to 1000 nM.

Question: And the DC50 (CDK13 [10]; read-out: CDK13 degradation Activity, DC50 classes, cell line not given)?
Answer: Its DC50 is 100 to 500 nM.

Question: Which results are given for `CC(=O)N(c1ccc(-c2ccc(N3CCN(c4cnn([C@H](C(=O)N5C[C@H](O)C[C@H]5C(=O)N[C@@H](C)c5ccc(-c6scnc6C)cc5)C(C)C)c4)CC3)nc2)cc1)[C@H]1CC[C@H](Nc2ncc3ccccc3n2)CC1` [Formula 152, (2S,4R)-4-hydroxy-1-((S)-3-methyl-2-(4-(4-(5-(4-(N-((1R,4R)-4-(quinazolin-2-ylamino)cyclohexyl)acetamido)phenyl)pyridin-2-yl)piperazin-1-yl)-1H-pyrazol-1-yl)butanoyl)-N—((S)-1-(4-(4-methylthiazol-5-yl)phenyl)ethyl)pyrrolidine-2-carboxamide]?
Answer: DC50 (CDK12 [9]; [11]): 100 to 500 nM; DC50 (CDK13 [10]; [12]): 100 to 500 nM

Question: For `CC(=O)N(c1ccc(-c2cnc(N3CCN(Cc4cnn([C@H](C(=O)N5C[C@H](O)C[C@H]5C(=O)N[C@@H](C)c5ccc(-c6scnc6C)cc5)C(C)C)c4)CC3)nc2)cc1)[C@H]1CC[C@H](Nc2ncc3ccccc3n2)CC1` [Formula 153, (2S,4R)-4-hydroxy-1-((S)-3-methyl-2-(4-((4-(5-(4-(N-((1R,4R)-4-(quinazolin-2-ylamino)cyclohexyl)acetamido)phenyl)pyrimidin-2-yl)piperazin-1-yl)methyl)-1H-pyrazol-1-yl)butanoyl)-N—((S)-1-(4-(4-methylthiazol-5-yl)phenyl)ethyl)pyrrolidine-2-carboxamide], which DC50 (CDK12 [9]; [11]) is on record?
Answer: Its DC50 is 100 to 500 nM.

Question: And the DC50 (CDK13 [10]; [12])?
Answer: The DC50 was < 100 nM.

Question: Which DC50 (CDK12 [9]; [11]) does the source give for `CC(=O)N(c1ccc(-c2cnc(N3CCN(c4cnn([C@H](C(=O)N5C[C@H](O)C[C@H]5C(=O)N[C@@H](C)c5ccc(-c6scnc6C)cc5)C(C)C)c4)CC3)nc2)cc1)[C@H]1CC[C@H](Nc2ncc3ccccc3n2)CC1` [Formula 154, (2S,4R)-4-hydroxy-1-((S)-3-methyl-2-(4-(4-(5-(4-(N-((1R,4R)-4-(quinazolin-2-ylamino)cyclohexyl)acetamido)phenyl)pyrimidin-2-yl)piperazin-1-yl)-1H-pyrazol-1-yl)butanoyl)-N—((S)-1-(4-(4-methylthiazol-5-yl)phenyl)ethyl)pyrrolidine-2-carboxamide] here?
Answer: Its DC50 is 100 to 500 nM.

Question: And the DC50 (CDK13 [10]; [12])?
Answer: Its DC50 is < 100 nM.

Question: Which DC50 (CDK12 [9]; [11]) does the source give for `CC(=O)N(c1ccc(-c2cnc(N3CCN(c4ccc5c(c4)C(=O)N(C4CCC(=O)NC4=O)C5=O)CC3)nc2)cc1)[C@H]1CC[C@H](Nc2ncc3ccccc3n2)CC1` (stereo partly shown) [Formula 158] here?
Answer: Its DC50 is < 100 nM.

Question: What about the DC50 (CDK13 [10]; [12]) of the same molecule?
Answer: Its DC50 is < 100 nM.
